The results in this text go back to patent US9993515B2 (DSM IP ASSETS B.V., priority 2006, dated 2018).

One data set concerns healthy volunteers. Briefly: Profile of Mood States (POMS) after consumption of tryptophan sources (Example 6). To be noted: for mood changes after the intake (POMS total mood scores): over time after intake. The data set is classed as in vivo, human.
For data set [1] the following is noted: both, human, in vivo. The method, then:
The amino acid profiles in plasma were analyzed as described in Example 6 by HPLC according to van Eijk et al (J. Chromatogr. 1993: 620: 143-148).
The aim of the present study was to investigate in healthy volunteers plasma Trp/LNAA profiles and mood after the consumption of different tryptophan containing preparations.
Eighteen healthy students (9 males and 9 females: age between 18-30 years) participated in the study. Exclusion criteria for participation were chronic and current illness, history of psychiatric or medical illness, use of medication or drugs, alcohol consumption (>2 units/day), metabolic-, hormonal- or intestinal diseases and irregular diets or deviant eating habits (assessed by health and life-style questionnaires). Subjects participating in the experiment were in the normal range for the Body-Mass Index (BMI in kg/m^2 between 20-25) and female subjects are matched for contraception. Women participated during their mid-late follicular phase (day 4-10), while women using contraception participated when they actually used the contraception pill. […] All subjects participating in the experiment signed an Informed Consent Form. This study was conducted according to the EC principles of Good Clinical Practice (GCP) adopted by the 52nd WMA General Assembly, Edinburgh, Scotland, October 2000.
Subjects were instructed to fast overnight; only water or tea without sugar was permitted. During five experimental morning sessions, subjects visited the laboratory to monitor plasma Trp/LNAA concentrations and mood following the intake of a drink containing different Trp or LNAA concentrations. The order of presentation of the various drinks was counterbalanced and the four experimental days were separated by a one-week period. On each experimental morning, a 312 ml drink was provided containing different tryptophan (Trp) or LNAA concentrations (Table 1). All drinks contained 0.10 g sweetener (acesulfame) and were filled up with plain water in order to reach 312 mL. A research assistant blind to the dietary conditions conducted the administration of the different drinks.
Blood samples were collected in duplicate before and 15, 30, 60, 90, 120, 180 and 210 minutes after ingestion in 5 ml vacutainer tubes containing sodium heparine and were then centrifuged at 5000 rpm for 5 min at 4° C. The resulting supernatants were mixed with sulfasalicyl acid (4 mg/100 microliter) and directly stored at −80° C. until analysis. Plasma amino acid analysis was conducted with HPLC, making use of a 2-3 μm Bischof Spherisorb ODS II column as described by van Eijk et al (J. Chromatogr. 1993: 620: 143-148). The plasma Trp/LNAA ratios were calculated by dividing the plasma molar tryptophan concentration by the sum of the plasma molar concentrations of the large neutral amino acids valine, isoleucine, leucine, tyrosine and phenylalanine. Statistical analysis took place by means of repeated measures multivariate and univariate analyses of variance (MANOVA and ANOVA) using the General Linear Model (GLM: SPSS 12.0 for Windows). All statistics were evaluated at a significance level of P=0.05.

Where two headings read alike, the source gives them in different places. Residues, ends and D or L forms follow the SMILES beside them.

Source text for healthy volunteers: The POMS comprises five different subscales for mood; ranging from Anger, Depression, Fatigue and Tension that refer to a negative mood state, to Vigor concerning a positive mood.

For `N[C@@H](Cc1c[nH]c2ccccc12)C(=O)O` [TRP, L-tryptophan], the “mood (POMS total mood scores)” value in the data set on healthy volunteers (60 min after the intake) is listed as “improvements of mood”. Moreover, the “plasma Trp/LNAA ratio” value worked out at 0.11 in data set [1] (0 min); 0.12 in data set [1] (30 min); 0.29 in data set [1] (60 min); 0.31 in data set [1] (90 min); 0.32 in data set [1] (120 min); 0.24 in data set [1] (180 min). Also, the “plasma Trp/LNAA ratio” value in data set [1] (210 min) is reported as 0.20.

On to `N[C@@H](CO)C(=O)N[C@@H](Cc1c[nH]c2ccccc12)C(=O)O` [SYN, Ser-Trp] (H-Ser-Trp-OH), for which, in the data set with healthy volunteers, the “mood changes after the intake (POMS total mood scores)” value was “not significant”.

For the compound “ALAC: intact alpha-lactalbumin obtained as Biopure (>90% alpha-lactalbumin) from Davisco Foods International”, the “mood changes after the intake (POMS total mood scores)” value in the data set with healthy volunteers is “no mood changes”.
